Results from patent US20250051277A1, “DELIVERY OF THERAPEUTIC ALKALOID COMPOUNDS” (Sensorium Therapeutics, Inc., priority 2021, published 2025).
Like-named read-outs stand apart in the source and are kept apart here.

Columns and labels:
[1] = Plasma Stability Assay of Example A3, mouse plasma; conditions: 5 μM, 37° C., % of prodrug compound remaining
[2] = Plasma Stability Assay of Example A3, human plasma; conditions: 5 μM, 37° C., % of prodrug compound remaining
[3] = 10 μM
Experimental: 50 μL aliquots of positive controls and test compounds spiked into rat or human plasma (n=2) were added to a pre-warmed plate (37° C.) and shaken at 50 rpm. At each respective time point, the reaction was stopped by adding 500 μL of acetonitrile containing internal standards (100 nM aprozolam, 200 nM caffeine, 100 nM tolbutamide). All samples were vortexed for 10 minutes, followed by centrifugation at 3,220 g for 30 minutes to precipitate proteins. 100 μL of the supernatant is transferred to a new plate. The supernatant will be diluted with ultrapure water according to the LC-MS signal response and peak shape.

[4] = 10 μM; remark: listed apart in the source

COc1ccc([C@@]23CCC(OC(=O)c4ccc(C(F)(F)F)cc4)=C[C@@H]2N(C)CC3)cc1OC [Compound 310]
Mouse Plasma Prodrug (%) ([1]; 0 min): 100.0%
Mouse Plasma Prodrug (%) ([1]; 15 min): 0.4%
Mouse Plasma Prodrug (%) ([1]; 30 min): 0.1%
Mouse Plasma Prodrug (%) ([1]; 60 min): 0.1%
Mouse Plasma Prodrug (%) ([1]; 120 min): 0.1%
Mouse Plasma Prodrug (%) ([1]; 240 min): 0.1%
Human Plasma Prodrug (%) ([2]; 0 min): 100.0%
Human Plasma Prodrug (%) ([2]; 15 min): 89.9%
Human Plasma Prodrug (%) ([2]; 30 min): 84.5%
Human Plasma Prodrug (%) ([2]; 60 min): 77.3%
Human Plasma Prodrug (%) ([2]; 120 min): 63.4%
Human Plasma Prodrug (%) ([2]; 240 min): 35.1%

CCCC(C)C(=O)OC1=C[C@@H]2N(C)CC[C@]2(c2ccc(OC)c(OC)c2)CC1 (stereo partly drawn) [Compound 402, (3aS,7aS)-3a-(3,4-dimethoxyphenyl)-1-methyl-2,3,3a,4,5,7a-hexahydro-1H-indol-6-yl2-methylpentanoate]
Prodrug (%) remaining, Human Plasma ([3]; 0 h): 100.0%
Prodrug (%) remaining, Human Plasma ([3]; 10 min): 11.3%
Prodrug (%) remaining, Human Plasma ([3]; 0.5 h): 2.9%
Prodrug (%) remaining, Human Plasma ([3]; 1 h): 2.1%
Prodrug (%) remaining, Human Plasma ([3]; 2 h): 1.6%
Prodrug (%) remaining, Human Plasma ([3]; 4 h): 1.1%
Prodrug (%) remaining, Rat Plasma ([4]; 0 h): 100.0%
Prodrug (%) remaining, Rat Plasma ([4]; 10 min): 3.5%
Prodrug (%) remaining, Rat Plasma ([4]; 0.5 h): 0.1%
Prodrug (%) remaining, Rat Plasma ([4]; 1 h): 0.0%
Prodrug (%) remaining, Rat Plasma ([4]; 2 h): 0.0%
Prodrug (%) remaining, Rat Plasma ([4]; 4 h): 0.0%

COCCCCC(=O)OC1=C[C@@H]2N(C)CC[C@]2(c2ccc(OC)c(OC)c2)CC1 [Compound 404, (3aS,7aS)-3a-(3,4-dimethoxyphenyl)-1-methyl-2,3,3a,4,5,7a-hexahydro-1H-indol-6-yl5-methoxypentanoate]
Prodrug (%) remaining, Human Plasma ([3]; 0 h): 100.0%
Prodrug (%) remaining, Human Plasma ([3]; 10 min): 22.9%
Prodrug (%) remaining, Human Plasma ([3]; 0.5 h): 11.5%
Prodrug (%) remaining, Human Plasma ([3]; 1 h): 7.6%
Prodrug (%) remaining, Human Plasma ([3]; 2 h): 3.8%
Prodrug (%) remaining, Human Plasma ([3]; 4 h): 1.6%
Prodrug (%) remaining, Rat Plasma ([4]; 0 h): 100.0%
Prodrug (%) remaining, Rat Plasma ([4]; 10 min): 0.3%
Prodrug (%) remaining, Rat Plasma ([4]; 0.5 h): 0.3%
Prodrug (%) remaining, Rat Plasma ([4]; 1 h): 0.3%
Prodrug (%) remaining, Rat Plasma ([4]; 2 h): 0.3%
Prodrug (%) remaining, Rat Plasma ([4]; 4 h): 0.2%

COCCOCCC(=O)OC1=C[C@@H]2N(C)CC[C@]2(c2ccc(OC)c(OC)c2)CC1 [Compound 405, (3aS,7aS)-3a-(3,4-dimethoxyphenyl)-1-methyl-2,3,3a,4,5,7a-hexahydro-1H-indol-6-yl3-(2-methoxyethoxy)propanoate]
Prodrug (%) remaining, Human Plasma ([3]; 0 h): 100.0%
Prodrug (%) remaining, Human Plasma ([3]; 10 min): >99%
Prodrug (%) remaining, Human Plasma ([3]; 0.5 h): 95.0%
Prodrug (%) remaining, Human Plasma ([3]; 1 h): 87.0%
Prodrug (%) remaining, Human Plasma ([3]; 2 h): 65.7%
Prodrug (%) remaining, Human Plasma ([3]; 4 h): 46.7%
Prodrug (%) remaining, Rat Plasma ([4]; 0 h): 100.0%
Prodrug (%) remaining, Rat Plasma ([4]; 10 min): 0.1%
Prodrug (%) remaining, Rat Plasma ([4]; 0.5 h): 0.0%
Prodrug (%) remaining, Rat Plasma ([4]; 1 h): 0.1%
Prodrug (%) remaining, Rat Plasma ([4]; 2 h): 0.0%
Prodrug (%) remaining, Rat Plasma ([4]; 4 h): 0.0%

CCC(C)C(=O)OC1=C[C@@H]2N(C)CC[C@]2(c2ccc(OC)c(OC)c2)CC1 (stereo partly drawn) [Compound 425, (3aS,7aS)-3a-(3,4-dimethoxyphenyl)-1-methyl-2,3,3a,4,5,7a-hexahydro-1H-indol-6-yl2-methylbutanoate]
Prodrug (%) remaining, Human Plasma ([3]; 0 h): 100.0%
Prodrug (%) remaining, Human Plasma ([3]; 10 min): 6.5%
Prodrug (%) remaining, Human Plasma ([3]; 0.5 h): 4.8%
Prodrug (%) remaining, Human Plasma ([3]; 1 h): 4.0%
Prodrug (%) remaining, Human Plasma ([3]; 2 h): 3.0%
Prodrug (%) remaining, Human Plasma ([3]; 4 h): 1.9%
Prodrug (%) remaining, Rat Plasma ([4]; 0 h): 100.0%
Prodrug (%) remaining, Rat Plasma ([4]; 10 min): 4.4%
Prodrug (%) remaining, Rat Plasma ([4]; 0.5 h): 0.1%
Prodrug (%) remaining, Rat Plasma ([4]; 1 h): 0.0%
Prodrug (%) remaining, Rat Plasma ([4]; 2 h): 0.0%
Prodrug (%) remaining, Rat Plasma ([4]; 4 h): 0.0%

CCC(CC)C(=O)OC1=C[C@@H]2N(C)CC[C@]2(c2ccc(OC)c(OC)c2)CC1 [Compound 426, (3aS,7aS)-3a-(3,4-dimethoxyphenyl)-1-methyl-2,3,3a,4,5,7a-hexahydro-1H-indol-6-yl2-ethylbutanoate]
Prodrug (%) remaining, Human Plasma ([3]; 0 h): 100.0%
Prodrug (%) remaining, Human Plasma ([3]; 10 min): 87.1%
Prodrug (%) remaining, Human Plasma ([3]; 0.5 h): 80.3%
Prodrug (%) remaining, Human Plasma ([3]; 1 h): 79.2%
Prodrug (%) remaining, Human Plasma ([3]; 2 h): 73.6%
Prodrug (%) remaining, Human Plasma ([3]; 4 h): 66.4%
Prodrug (%) remaining, Rat Plasma ([4]; 0 h): 100.0%
Prodrug (%) remaining, Rat Plasma ([4]; 10 min): 70.2%
Prodrug (%) remaining, Rat Plasma ([4]; 0.5 h): 33.2%
Prodrug (%) remaining, Rat Plasma ([4]; 1 h): 9.5%
Prodrug (%) remaining, Rat Plasma ([4]; 2 h): 0.9%
Prodrug (%) remaining, Rat Plasma ([4]; 4 h): 0.1%

CCCC(CCC)C(=O)OC1=C[C@@H]2N(C)CC[C@]2(c2ccc(OC)c(OC)c2)CC1 [Compound 427, (3aS,7aS)-3a-(3,4-dimethoxyphenyl)-1-methyl-2,3,3a,4,5,7a-hexahydro-1H-indol-6-yl2-propylpentanoate]
Prodrug (%) remaining, Human Plasma ([3]; 0 h): 100.0%
Prodrug (%) remaining, Human Plasma ([3]; 10 min): >99%
Prodrug (%) remaining, Human Plasma ([3]; 0.5 h): 96.6%
Prodrug (%) remaining, Human Plasma ([3]; 1 h): 96.9%
Prodrug (%) remaining, Human Plasma ([3]; 2 h): 95.5%
Prodrug (%) remaining, Human Plasma ([3]; 4 h): 91.2%
Prodrug (%) remaining, Rat Plasma ([4]; 0 h): 100.0%
Prodrug (%) remaining, Rat Plasma ([4]; 10 min): 93.6%
Prodrug (%) remaining, Rat Plasma ([4]; 0.5 h): 73.4%
Prodrug (%) remaining, Rat Plasma ([4]; 1 h): 43.9%
Prodrug (%) remaining, Rat Plasma ([4]; 2 h): 16.0%
Prodrug (%) remaining, Rat Plasma ([4]; 4 h): 2.3%

CCC(C)(C)C(=O)OC1=C[C@@H]2N(C)CC[C@]2(c2ccc(OC)c(OC)c2)CC1 [Compound 428, (3aS,7aS)-3a-(3,4-dimethoxyphenyl)-1-methyl-2,3,3a,4,5,7a-hexahydro-1H-indol-6-yl2,2-dimethylbutanoate]
Prodrug (%) remaining, Human Plasma ([3]; 0 h): 100.0%
Prodrug (%) remaining, Human Plasma ([3]; 10 min): 82.9%
Prodrug (%) remaining, Human Plasma ([3]; 0.5 h): 74.5%
Prodrug (%) remaining, Human Plasma ([3]; 1 h): 69.1%
Prodrug (%) remaining, Human Plasma ([3]; 2 h): 56.8%
Prodrug (%) remaining, Human Plasma ([3]; 4 h): 46.0%
Prodrug (%) remaining, Rat Plasma ([4]; 0 h): 100.0%
Prodrug (%) remaining, Rat Plasma ([4]; 10 min): 90.3%
Prodrug (%) remaining, Rat Plasma ([4]; 0.5 h): 69.9%
Prodrug (%) remaining, Rat Plasma ([4]; 1 h): 41.7%
Prodrug (%) remaining, Rat Plasma ([4]; 2 h): 18.1%
Prodrug (%) remaining, Rat Plasma ([4]; 4 h): 3.9%

CCCC(C)(C)C(=O)OC1=C[C@@H]2N(C)CC[C@]2(c2ccc(OC)c(OC)c2)CC1 [Compound 429, (3aS,7aS)-3a-(3,4-dimethoxyphenyl)-1-methyl-2,3,3a,4,5,7a-hexahydro-1H-indol-6-yl2,2-dimethylpentanoate]
Prodrug (%) remaining, Human Plasma ([3]; 0 h): 100.0%
Prodrug (%) remaining, Human Plasma ([3]; 10 min): >99%
Prodrug (%) remaining, Human Plasma ([3]; 0.5 h): 96.3%
Prodrug (%) remaining, Human Plasma ([3]; 1 h): 95.3%
Prodrug (%) remaining, Human Plasma ([3]; 2 h): 91.8%
Prodrug (%) remaining, Human Plasma ([3]; 4 h): 84.6%
Prodrug (%) remaining, Rat Plasma ([4]; 0 h): 100.0%
Prodrug (%) remaining, Rat Plasma ([4]; 10 min): 90.4%
Prodrug (%) remaining, Rat Plasma ([4]; 0.5 h): 83.9%
Prodrug (%) remaining, Rat Plasma ([4]; 1 h): 71.9%
Prodrug (%) remaining, Rat Plasma ([4]; 2 h): 50.8%
Prodrug (%) remaining, Rat Plasma ([4]; 4 h): 26.2%

CCC(C)(CC)C(=O)OC1=C[C@@H]2N(C)CC[C@]2(c2ccc(OC)c(OC)c2)CC1 [Compound 430, (3aS,7aS)-3a-(3,4-dimethoxyphenyl)-1-methyl-2,3,3a,4,5,7a-hexahydro-1H-indol-6-yl2-ethyl-2-methylbutanoate]
Prodrug (%) remaining, Human Plasma ([3]; 0 h): 100.0%
Prodrug (%) remaining, Human Plasma ([3]; 10 min): >99%
Prodrug (%) remaining, Human Plasma ([3]; 0.5 h): >99%
Prodrug (%) remaining, Human Plasma ([3]; 1 h): >99%
Prodrug (%) remaining, Human Plasma ([3]; 2 h): >99%
Prodrug (%) remaining, Human Plasma ([3]; 4 h): 95.9%
Prodrug (%) remaining, Rat Plasma ([4]; 0 h): 100.0%
Prodrug (%) remaining, Rat Plasma ([4]; 10 min): 98.2%
Prodrug (%) remaining, Rat Plasma ([4]; 0.5 h): 98.3%
Prodrug (%) remaining, Rat Plasma ([4]; 1 h): 97.1%
Prodrug (%) remaining, Rat Plasma ([4]; 2 h): 94.1%
Prodrug (%) remaining, Rat Plasma ([4]; 4 h): 92.8%

COc1ccc([C@@]23CCC(OC(=O)CC(C)(C)C)=C[C@@H]2N(C)CC3)cc1OC [Compound 431, (3aS,7aS)-3a-(3,4-dimethoxyphenyl)-1-methyl-2,3,3a,4,5,7a-hexahydro-1H-indol-6-yl3,3-dimethylbutanoate]
Prodrug (%) remaining, Human Plasma ([3]; 0 h): 100.0%
Prodrug (%) remaining, Human Plasma ([3]; 10 min): 82.1%
Prodrug (%) remaining, Human Plasma ([3]; 0.5 h): 69.0%
Prodrug (%) remaining, Human Plasma ([3]; 1 h): 62.8%
Prodrug (%) remaining, Human Plasma ([3]; 2 h): 52.6%
Prodrug (%) remaining, Human Plasma ([3]; 4 h): 37.4%
Prodrug (%) remaining, Rat Plasma ([4]; 0 h): 100.0%
Prodrug (%) remaining, Rat Plasma ([4]; 10 min): 74.5%
Prodrug (%) remaining, Rat Plasma ([4]; 0.5 h): 45.7%
Prodrug (%) remaining, Rat Plasma ([4]; 1 h): 16.5%
Prodrug (%) remaining, Rat Plasma ([4]; 2 h): 2.3%
Prodrug (%) remaining, Rat Plasma ([4]; 4 h): 0.2%
